Test results: publication PMC7539200, “Glufosinate constrains synchronous and metachronous metastasis by promoting anti‐tumor macrophages” (EMBO Molecular Medicine, 2020)
Where two headings read alike, the source gives them in different places.

How the values were obtained:
[1] = molecular target: T1, human glutamine synthetase (hGS) (Homo sapiens, UniProt P15104); assay: microtiter phosphate-release GS activity assay, Lineweaver-Burk and secondary plot; IC50 […]; type: biochemical
T1 construct: gene GLUL
T1 sequence (P15104 2-373): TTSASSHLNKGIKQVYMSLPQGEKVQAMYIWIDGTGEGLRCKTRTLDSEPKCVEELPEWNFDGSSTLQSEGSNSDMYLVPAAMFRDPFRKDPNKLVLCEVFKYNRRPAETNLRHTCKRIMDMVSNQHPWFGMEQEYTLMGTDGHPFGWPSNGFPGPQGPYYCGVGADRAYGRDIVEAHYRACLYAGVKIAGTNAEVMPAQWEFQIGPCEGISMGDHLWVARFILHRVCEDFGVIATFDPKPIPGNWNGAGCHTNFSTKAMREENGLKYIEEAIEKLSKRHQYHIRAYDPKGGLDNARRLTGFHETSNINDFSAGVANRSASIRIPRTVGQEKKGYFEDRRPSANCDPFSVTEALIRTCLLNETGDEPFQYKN

[2] = molecular target: T1, human glutamine synthetase (hGS); assay: as above; type: biochemical; remark: listed apart in the source

CS(=N)(=O)CCC(N)C(=O)O (centres unmarked) [Methionine sulfoximine]
Ki [1]: 880 µM

CP(=O)(O)CCC(N)C(=O)O (centres unmarked) [Glufosinate]
Ki [2]: ~19.5 µM
